Data from patent US7501281B2, “Compositions, methods and kits related to thrombin, Notch signaling and stamatogenesis and growth of stem cells” (Maine Medical Center Research Institute, priority 2003, dated 2009).
Marks after values point to notes of the source that are not given here.

B1: sDl1: soluble non-transmembrane form of the Notch ligand Delta1 (protein)
chain: QVWSSGVFELKLQEFVNKKGLLGNRNCCRGGAGPPPCACRTFFRVCLKHYQASVSPEPPCTYGSAVTPVLGVDSFSLPDGGGADSAFSNPIRFPFGFTWPGTFSLIIEALHTDSPDDLATENPERLISRLATQRHLTVGEEWSQDLHSSGRTDLKYSYRFVCDEHYYGEGCSVFCRPRDDAFGHFTCGERGEKVCNPGWKGPYCTEPICLPGCDEQHGFCDKPGECKCRVGWQGRYCDECIRYPGCLHGTCQQPWQCNCQEGWGGLFCNQDLNYCTHHKPCKNGATCTNTGQGSYTCSCRPGYTGATCELGIDECDPSPCKNGGSCTDLENSYSCTCPPGFYGKICELSAMTCADGPCFNGGRCSDSPDGGYSCRCPVGYSGFNCEKKIDYCSSSPCSNGAKCVDLGDAYLCRCQAGFSGRHCDDNVDDCASSPCANGGTCRDGVNDFSCTCPPGYTGRNCSAPVSRCEHAPCHNGATCHERGHRYVCECARGYGGPNCQFLLPELPPGPAVVDLTEKLEGQGGPFPW
modifications: left off: small tags and cut ends
notes: soluble non-transmembrane form of the Notch ligand Delta1

Columns and labels:
Format in all cases: cell-based
mouse NSCS populations = test: Clonogenic differentiation assay of NCSC, pre-incubation with Notch ligand then BMP2 challenge
Description: Clonogenic assays were performed as described (Stemple et al., 1992, Cell 71:973-985). Briefly, populations of murine NCSC were plated at a clonal density and maintained for a maximum of 14 days in Morrison media supplemented with 15% chick embryo extract (Morrison et al., 1999, Cell 96:737-749). The resulting clones were fixed in an acetic acid:ethanol solution (2:1) and stained with antibodies against peripherin (Chemicon) to detect neurons, smooth muscle actin (Sigma) to detect myofibroblasts, and GFAP (Chemicon) to detect Schwann cells. Clones were scored based on the appearance of just one phenotypic representative. The number and percentage of clones containing neurons only (N), Schwann cells only (S), myofibroblasts only (M), N+S, N+M, N+S+M, and S+M were scored at day 14 unless otherwise stated. The production of each representative phenotype in each individual clone was also scored to complement the clonal population assay.
NCSC Retain Neurogenic capacity in the presence of sJ1. A clonogenic differentiation assay was performed using mouse NSCS populations as described previously (Kubu et al., 2002, Dev. Biol. 244:199-214; Stemple et al., 1992, Cell 71:973-985). The cells were incubated in Stemple media (Stemple et al., 1992) with or without 5 nM sDl1 or 7.5 nM sJ I for the time periods set forth in Table 1. After the initial incubation period, cells were washed and neuronal differentiation was challenged in the presence of 1 ng/ml BMP2 for an additional seven days. The resulting clones were fixed and stained for detection of neural crest markers. The data disclosed in Table 1 is presented as the percentage of glial-only, neuron-only, and neuron colonies containing either smooth muscle or glial markers as the mean±standard deviation (SD) of three experiments originating from three independent cell isolations. Note the retention of neurogenic differentiation capacity in sJ1-treated cells (*=p<0.01) compared with the sDl1-treated cells.

[1] = tested on: HEY and Deltex transcripts in NCSC populations; test: RT-PCR analyses of Notch down-stream effectors
Source text: It is also interesting that sJ1 and sDl1 induce distinctive phenotypic outcomes. Whereas sJ1:Notch interactions enable stamatogenesis, sDl1:Notch associations lead to an immediate loss of neurogenic potential. […] Likewise, Delta1, but not Jagged1, is able to promote the in vitro development of human cord blood-derived progenitor cells with a T cell/natural killer cell phenotype (Jaleco et al., 2001, J. Exp. Med. 194:991-1002), and sJ1 is able to promote the clonal expansion of hematopoietic stem cells in vitro (Vas et al., 2004, J. Leukoc. Biol., in press). […] Thus, it appears that sJ1 and sDl1 induce different cell fate decisions in NCSC populations. […] Thus, without wishing to be bound by any particular theory, the levels of Notch signaling may be paramount in regulating the undifferentiated expansion of multipotential neural stem cells, and thrombin and/or sJ1, may be one of the key elements in this process that enable stamatogenesis to occur.

[2] = tested on: secondary NCSC populations; test: Dosage sensitivity of secondary NCSC to instructive differentiation factors BMP2 and sDl1; settings: clones expanded 18 days; 5 μM TRAP, sJ1 or thrombin
Description: Secondary NCSC population were generated from founder NCSC clones after 13 days of growth in Morrison media supplemented either with 7.5 nM sJ1 (▴-▴), 5 μg/ml α-thrombin (▾-▾), 5 μM TRAP (♦-♦) or no additive (control; ▪-▪) and compared to freshly isolated populations of NCSC (●-●). […] Clonogenic differentiation assays of secondary P75^+/P0^− NCSC populations were assayed in Morrison media as a function of the concentration of the neurogenic differentiation factor, BMP2, and the generation of Neuron-only clones was assessed 14 days after the addition of BMP2. […] Clonogenic differentiation assays of secondary P75^+/P0^− NCSC were preformed in Morrison media supplemented with increasing concentrations of the gliogenic differentiation factor, sDl1 and the generation of Glial-only clones was assessed 14 days after the addition of sDl1. […]
It is well established that quantitative changes in the dosage sensitivity of NCSC populations occur in vitro and in vivo during NCSC self-renewal (Kubu et al., 2002, Dev. Biol. 244:199-214; White et al., 1999, Development 126:4351-4363; White et al., 2001, Neuron 29:57-71). […] The dosage sensitivity of secondary NCSC populations to both BMP2 and sDl1 was evaluated using the clonogenic differentiation assay to quantitate the production of neuron-only clones (BMP2) and glial-only clones (sDl1) after day 18.

[3] = 24 hrs with 5 nM sDl1 or 7.5 nM sJ1, then 1 ng/ml BMP2 for seven days, percentage of colonies, mean±SD
[4] = 72 hrs with 7.5 nM sJ1, then 1 ng/ml BMP2 for seven days
[5] = 120 hrs with 7.5 nM sJ1, then 1 ng/ml BMP2 for seven days
[6] = 168 hrs with 7.5 nM sJ1, then 1 ng/ml BMP2 for seven days

Molecule	Glial-Only (mouse NSCS populations; [3])	Neuron-Containing (mouse NSCS populations; [3])	Neuron-Only (mouse NSCS populations; [3])	Glial-Only (mouse NSCS populations; [4])	Neuron-Containing (mouse NSCS populations; [4])	Neuron-Only (mouse NSCS populations; [4])	Glial-Only (mouse NSCS populations; [5])	Neuron-Containing (mouse NSCS populations; [5])	Neuron-Only (mouse NSCS populations; [5])	Glial-Only (mouse NSCS populations; [6])	Neuron-Containing (mouse NSCS populations; [6])	Neuron-Only (mouse NSCS populations; [6])	steady-state levels of HEY and Deltex transcripts [1]	shift in sensitivity to instructive differentiation signals [2]
sJ1: Soluble Jagged1, amino acid residues from about 1 to 1067 (SEQ ID NO:3) of full-length Jagged1	0%	71.4 ± 6.2%*	54.4 ± 8.4%*	0.8 ± 1.4%*	74.8 ± 16.3%*	42.8 ± 6.6%*	5.82 ± 3.4%*	52.01 ± 14.1%*	13.43 ± 6.5%*	13.3 ± 4.5%*	35.03 ± 9.1%	6.5 ± 1.3%*	suppression	not observed
Thrombin														not observed
B1	57.8 ± 9.9%	7.0 ± 5.7%	0%										not	
